Source: US20190367558A1, “ANTIBODY/DRUG CONJUGATES AND METHODS OF USE” (ESPERANCE PHARMACEUTICALS, INC., priority 2012, published 2019)
“Also recorded” adds a separate entry of the source. Read-outs that look alike come from different tables or passages of the source.

What was measured:
Format in all cases: cell-based, human
[1] = tested on: Raji (CD20 positive Non-Hodgkin's lymphoma cells); assay: Cell viability, Cell Titer Glo luminescent assay (Example 12)
Experimental: (§1) Naked antibody anti-CD20-IgG1-Phor18 were chemically conjugated (MS4A and AT80), Mw app.158,000 g/mol at a concentrations of 0.34 mg/ml (MS4A-Phor18) and 0.76 mg/ml (AT-80-Phor18). Cell lines were obtained at the American Type Cell Collection (Mannassas, Va.). Human Non-Hodgkin's lymphoma cells Daudi (CD20 positive, passage number p2), Raji (CD20 positive p 2) and human leukemia cell line U937 (CD20 negative, p 10) were seeded at a density of 3,000 cells per well in opaque plates in heat inactivated full medium. After 24 hours cells were replenished with fresh media (75 μl) and incubated with 25 μl of a 4× serial dilution of MS4A1-Phor18 and AT80-Phor18 of 0.001, 0.01, 0.1, 1, 10, 100 and 500 nM (N=6). Cells incubated for 2-5 hours were assayed for membrane integrity using a luminometric assay kit (Promega, Madison, Wis., Cytotox Glo G9292 lot #301329). Cell viability was determined was determined after 24, and 48 hours using a luminescent assay kit (Promega, Madison, Wis., Cell Titer Glo, G 7572, lot 30068102).

[2] = tested on: Daudi (CD20 positive Non-Hodgkin's lymphoma cells); assay: Membrane integrity, Cytotox Glo luminometric assay (Examples 12, 16, 19, 20, 22); details: membrane integrity
Experimental: as §1
(§2) The concentration of each naked antibody fragment and ADC was determined according to Bradford. Naked antibody scFv Mw 27,088 g/mol at a concentration of 0.3 mg/ml, minibody Mw 78,988 g/mol, 0.231 mg/ml; Phor 18 conjugated antibodies were scFv-Phor18 (Mw 29,349 g/mol, 0.9 mg/ml) and minibody-Phor18 (Mw 93,515, 0.48 mg/ml). Cell lines were obtained at the American Type Cell Collection (Mannassas, Va.). Human Non-Hodgkin's lymphoma cells Daudi (CD20 positive, passage number p8) and human leukemia cell line U937 (CD20 negative, p 16) were seeded at a density of 2,000 cells per well in opaque plates in heat inactivated full medium. After 24 hours cells were replenished with fresh media (75 μl) and incubated with 25 μl of a 4× serial dilution of scFv-Phor18 and minibody-Phor18 ADC and naked antibody fragment (scFv and minibody) prepared in cell culture media were added at concentrations of 0.0001, 0.001, 0.01, 0.1, 1, 10, 100, 200, and 500 nM (N=6). Cells incubated for 4 hours were assayed for membrane integrity using a luminometric assay kit (Promega, Madison, Wis., Cytotox Glo G9292 lot #301329). Cell viability was determined was determined after 24, 48 and 72 hours using a luminescent assay kit (Promega, Madison, Wis., Cell Titer Glo, G 7572, lot 30062102).
(§3) Controls for 100% cell viability (culture media) and 100% cell death (0.1% Triton X 100) incubated under the same conditions.
(§4) Data were processed and analyzed to obtain IC50 values using Graph Pad Prizm version 5.00 for Windows, GraphPad Software, San Diego Calif. USA, www-graphpad-com (Graph Pad Prizm, Inc). Statistical analysis for significance was determined by a two-tailed Student's T-test. Each test was conducted using 2 plates with 2-3 wells each to achieve an N of 4-6 data points per time point.
(§5) The concentration of each naked antibody fragment and ADC was determined spectrophotometrically (OD280). Naked antibody scFv-Fc Mw 52,562 g/mol at a concentration of 1.1 mg/ml, Phor 18 conjugated antibodies were Phor18-VL-scFvFc (Mw 54,685 g/mol, 1.0 mg/ml), scFv-Fc-CH3-Phor18 (Mw 54,685 g/mol, 0.8 mg/ml). Human Non-Hodgkin's lymphoma cells Daudi (CD20 positive, passage number p7) and human leukemia cell line U937 (CD20 negative, p 6) were seeded at a density of 2,000 cells per well in opaque plates in heat inactivated full medium using cell dissociation buffer. After 24 hours cells were replenished with fresh media (75 μl) and incubated and incubated with 25 μl of a 4× serial dilution of each ADC and naked antibody prepared in cell culture media were added at concentrations of 0.01, 0.1, 1, 10, 100, 200 and 500 nM for scFvFc, Phor18-VL-scFvFc and scFv-Fc-CH3-Phor18.
(§6) Cells incubated for 4 hours were assayed for membrane integrity using a luminometric assay kit (Promega, Madison, Wis., Cytotox Glo G9292 lot #26229601). Cell viability was determined was determined after 24 hours using a luminescent assay kit (Promega, Madison, Wis., Cell Titer Glo, G 7572, lot 30731602). […]

[3] = tested on: Daudi (CD20 positive Non-Hodgkin's lymphoma cells); assay: Cell viability, Cell Titer Glo luminescent assay (Examples 12, 16, 19, 20, 22)
Experimental: as §1, §2, §3, §4, §5, §6

[4] = tested on: U937 (CD20 negative leukemia cell line); assay: as above; details: for IC50, U937 (CD20 negative) 2-46 h: U937, 2-46 h (membrane integrity and viability time points), Example 12; for IC50, U937 2-48 h: Example 16
Experimental: as §1, §2, §5
Cells incubated for 4 hours were assayed for membrane integrity using a luminometric assay kit (Promega, Madison, Wis., Cytotox Glo G9292 lot #26229601). Cell viability was determined was determined after 24 hours using a luminescent assay kit (Promega, Madison, Wis., Cell Titer Glo, G 7572, lot 30731602). Controls for 100% cell viability (culture media) and 100% cell death (0.1% Triton X 100) incubated under the same conditions.
Human Non-Hodgkin's lymphoma cells Daudi (CD20 positive, passage number p3) and human leukemia cell line U937 (CD20 negative, p 12) were seeded at a density of 2,000 cells per well in opaque plates in heat inactivated full medium using cell dissociation buffer. […]

[5] = tested on: Raji (CD20 positive Non-Hodgkin's lymphoma cells); assay: Membrane integrity, Cytotox Glo luminometric assay (Example 12)
Experimental: as §1

[6] = tested on: caspase 3/7 in Daudi cells (CD20 positive); assay: Caspase 3/7 activation, Caspase Glo 3/7 luminometric assay (Examples 13, 17); details: 5 hours; scFv-Phor18 or scFv at 5 and 15 μg/ml; Staurosporine 10 μM = 100%; Daudi (Raji also seeded)
Experimental: Human Non-Hodgkin's lymphoma cells Daudi (CD20 positive, passage number p2), were seeded at a density of 3,000 cells per well in opaque plates in heat inactivated full medium. After 24 hours cells were fed with fresh media (75 μl) and incubated with AT80-Phor18 (0.76 mg/ml) or naked antibody AT-80 of 15 and 75 μg/ml (100 and 500 nM) (N=6). Staurosporine at 10 μM served as positive control for caspase 3/7 activation. After 5 hours of incubatin cultures were assayed for caspase 3/7 levels using a luminometric assay kit (Promega, Madison, Wis., Caspase Glo 3/7 G811C lot #28731802).
Caspase 3/7 activation was calculated from relative light units from luminometric signals. Staurosporine was set at 100% caspase 3/7 activation, cell suspension alone without additions of reagents served as 0% caspase levels.
In in vitro studies, caspase activation of recombinantly expressed CD20 targeting scFv-Phor18 conjugate with “naked” antibody (scFv) in CD20 positive cells (Daudi Burkitt's lymphoma) was compared. Human Non-Hodgkin's lymphoma cells Daudi (CD20 positive, p 5) and Raji (CD20 positive, passage number p 3), were seeded at a density of 3,000 cells per well in opaque plates in heat inactivated full medium. […]
Relative caspase 3/7 activation was calculated from relative light units from luminometric signals. […]

[7] = Example 12, listed as MS4A1-Phor18
[8] = 46 h (text: 48 h / 46 hours), Example 16

## Anti-CD20 MS4A1: naked anti-CD20 antibody MS4A1 (Rituximab Like, R&D) [reference compound]
[1]; 24 h
  IC50, Raji 24 h: Not toxic
[1]; 46 h (text: 48 h)
  IC50, Raji 46 h: Not toxic
[2]; Example 12
  IC50, Daudi 2 h: Not toxic
  IC50, Daudi 5 h: Not toxic
[3]; 24 h, Example 12
  IC50, Daudi 24 h: Not toxic
[3]; 46 h (text: 48 h), Example 12
  IC50, Daudi 46 h: Not toxic
[4]
  IC50, U937 (CD20 negative) 2-46 h: Not toxic

## Anti-CD20-Phor18 (MS4A1)
[5]; 2 h
  IC50, Raji 2 h: not active
[5]; 5 h
  IC50, Raji 5 h: not active
[1]; 24 h, listed as MS4A1-Phor18, read-out: IC50, Raji 24 h
  IC50: 267 ± 13 nM
[1]; 24 h, read-out: IC50, Raji 24 h
  IC50: 267 ± 13 nM
[1]; 46 h (text: 48 h), read-out: IC50, Raji 46 h
  IC50: 227 ± 11 nM
[2]; Example 12
  IC50, Daudi 2 h: Not toxic
  IC50, Daudi 5 h: Not toxic
[2]; [7]
  IC50, Daudi 2 h: not active
  IC50, Daudi 5 h: not active
[3]; 24 h, Example 12, read-out: IC50, Daudi 24 h
  IC50: 10.6 ± 2.1 nM
[3]; 46 h (text: 48 h), Example 12, read-out: IC50, Daudi 46 h
  IC50: 3 ± 1.2 nM
[4]
  IC50, U937 (CD20 negative) 2-46 h: Not toxic

B1: Fv-CH3-CH3-Fv: naked bivalent anti-CD20 minibody, E. coli, SEQ ID NO.:94 (protein)
chain: DIQLTQSPAILSASPGEKVTMTCRASSSVSYIHWFQQKPGSSPKPWIYATSNLASGVPVRFSGSGSGTSYSLTISRVEAEDAATYYCQQWTSNPPTFGGGTKLEIGSTSGGGSGGGSGGGGSSVQLQQPGAELVKPGASVKMSCKASGYTFTSYNMHWVKQTPGRGLEWIGAIYPGNGDTSYNQKFKGKATLTADKSSSTAYMQLSSLTSEDSAVYYCARSTYYGGDWYFDVWGQGTTVTVSSGQPREPQVYTLPPSRDELTKNQVSLTCLVKGFYPSDIAVEWESNGQPENNYKTTPPVLDSDGSFFLYSKLTVDKSRWQQGNVFSCSVMHEALHNHYTQKSLSLSPGKGSTSGGGSGGGSGGGGSSGQPREPQVYTLPPSRDELTKNQVSLTCLVKGFYPSDIAVEWESNGQPENNYKTTPPVLDSDGSFFLYSKLTVDKSRWQQGNVFSCSVMHEALHNHYTQKSLSLSPGKVQLQQPGAELVKPGASVKMSCKASGYTFTSYNMHWVKQTPGRGLEWIGAIYPGNGDTSYNQKFKGKATLTADKSSSTAYMQLSSLTSEDSAVYYCARSTYYGGDWYFDVWGQGTTVTVSSGSTSGGGSGGGSGGGGSSDIQLTQSPAILSASPGEKVTMTCRASSSVSYIHWFQQKPGSSPKPWIYATSNLASGVPVFSGSGSGTSYSLTISRVEAEDAATYYCQQWTSNPPTFGGGTKLEI
[3]; 24 h, Example 16
  IC50, Daudi 24 h: Not toxic
[3]; [8]
  IC50, Daudi 46 h: Not toxic
[4]
  IC50, U937 2-48 h: Not toxic

B2: scFv: naked single chain Fv anti-CD20 fragment with Rituxan CDRs, E. coli, SEQ ID NO.:92 (protein)
scFv: HHHHHHDIQLTQSPAILSASPGEKVTMTCRASSSVSYIHWFQQKPGSSPKPWIYATSNLASGVPVRFSGSGSGTSYSLTISRVEAEDAATYYCQQWTSNPPTFGGGTKLEIGSTSGGGSGGGSGGGGSSVQLQQPGAELVKPGASVKMSCKASGYTFTSYNMHWVKQTPGRGLEWIGAIYPGNGDTSYNQKFKGKATLTADKSSSTAYMQLSSLTSEDSAVYYCARSTYYGGDWYFDVWGQGTTVTVSS
[2]; E. coli expressed, Example 16
  IC50, Daudi 2 h: Not toxic
  IC50, Daudi 5 h: Not toxic
[3]; 24 h, Example 16
  IC50, Daudi 24 h: Not toxic
[3]; [8]
  IC50, Daudi 46 h: Not toxic
[4]
  IC50, U937 2-48 h: not killed; also recorded: Not toxic
[6]
  Caspase 3/7 levels compared to Staurosporine: did not detectably activate caspases
